Assay results from patent US9029370B2, “Substituted benzamide derivatives” (Hoffmann-La Roche Inc., priority 2011, dated 2015).

Key:
rat TAAR1 = rat TAAR1 (Rattus norvegicus (Rat), UniProt Q923Y9); test: Radioligand binding assay on rat TAAR1; settings: rat TAAR1, HEK-293 membranes; second value of the pair (line below); read-out: Ki (μM) mouse/rat
Experimental: (§1) For the construction of expression plasmids the coding sequences of human, rat and mouse TAAR 1 were amplified from genomic DNA essentially as described by Lindemann et al.. The Expand High Fidelity PCR System (Roche Diagnostics) was used with 1.5 mM Mg^2+ and purified PCR products were cloned into pCR2.1-TOPO cloning vector (Invitrogen) following the instructions of the manufacturer. PCR products were subcloned into the pIRESneo2 vector (BD Clontech, Palo Alto, Calif.), and expression vectors were sequence verified before introduction in cell lines.
(§2) HEK293 cells (ATCC # CRL-1573) were cultured essentially as described by Lindemann et al. (2005). For the generation of stably transfected cell lines HEK293 cells were transfected with the pIRESneo2 expression plasmids containing the TAAR coding sequences (described above) with Lipofectamine 2000 (Invitrogen) according to the instructions of the manufacturer, and 24 hrs post transfection the culture medium was supplemented with 1 mg/ml G418 (Sigma, Buchs, Switzerland). After a culture period of about 10 d clones were isolated, expanded and tested for responsiveness to trace amines (all compounds purchased from Sigma) with the cAMP Biotrak Enzyme immunoassay (EIA) System (Amersham) following the non-acetylation EIA procedure provided by the manufacturer.
Radioligand Binding Assay on Rat TAAR1
(§3) Membrane Preparation and Radioligand Binding.
(§4) HEK-293 cells stably expressing rat TAAR1 were maintained at 37° C. and 5% CO2 in DMEM high glucose medium, containing fetal calf serum (10%, heat inactivated for 30 min at 56° C.), penicillin/streptomycin (1%), and 375 μg/ml geneticin (Gibco). Cells were released from culture flasks using trypsin/EDTA, harvested, washed twice with ice-cold PBS (without Ca^2+ and Mg^2+), pelleted at 1′000 rpm for 5 min at 4° C., frozen and stored at −80° C. […] The homogenate was centrifuged at 48′000×g for 30 min at 4° C. Subsequently, the supernatant was removed and discarded, and the pellet resuspended in 20 ml HEPES-NaOH (20 mM, pH 7.4) containing 0.1 mM EDTA using the Polytron (20 s at 14′000 rpm). This procedure was repeated and the final pellet resuspended in HEPES-NaOH containing 0.1 mM EDTA and homogenized using the Polytron. Typically, aliquots of 2 ml membrane portions were stored at −80° C. With each new membrane batch the dissociation constant (Kd) was determined via a saturation curve. […] Nonspecific binding was defined as the amount of ^3[H]-(S)-4-[(ethyl-phenyl-amino)-methyl]-4,5-dihydro-oxazol-2-ylamine bound in the presence of 10 μM unlabeled ligand. All compounds were tested at a broad range of concentrations (10 pM to 10 μM) in duplicates. […] The 96 deep well plates were incubated for 1 hr at 4° C. Incubations were terminated by rapid filtration through Unifilter-96 plates (Packard Instrument Company) and glass filters GF/C (Perkin Elmer) presoaked for 1 hr in polyethylenimine (0.3%) and washed 3 times with 1 ml of cold binding buffer. After addition of 45 μl of Microscint 40 (PerkinElmer) the Unifilter-96 plate was sealed and after 1 hr the ratioactivity counted using a TopCount Microplate Scintillation Counter (Packard Instrument Company).

mouse TAAR1 = mouse TAAR1 (Mus musculus (Mouse), UniProt Q923Y8); test: Radioligand binding assay on mouse TAAR1; settings: mouse TAAR1, HEK-293 membranes; first value of the pair (before the slash); read-out: Ki (μM) mouse/rat
mouse TAAR1, sequence (Q923Y8 whole entry): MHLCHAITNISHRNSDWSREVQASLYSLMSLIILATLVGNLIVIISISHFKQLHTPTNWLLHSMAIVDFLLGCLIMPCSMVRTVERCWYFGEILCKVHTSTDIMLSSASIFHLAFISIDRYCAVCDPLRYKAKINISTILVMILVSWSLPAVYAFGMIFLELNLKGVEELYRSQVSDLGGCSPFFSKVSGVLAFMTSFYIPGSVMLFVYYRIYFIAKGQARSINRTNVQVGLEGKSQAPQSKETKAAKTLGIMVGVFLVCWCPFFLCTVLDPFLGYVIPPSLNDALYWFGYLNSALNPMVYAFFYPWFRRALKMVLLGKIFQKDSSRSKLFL
Experimental: as §1, §2
Radioligand Binding Assay on Mouse TAAR1
as §3
as §4, with “expressing mouse” for “expressing rat”

rat TAAR1, sequence (Q923Y9 whole entry): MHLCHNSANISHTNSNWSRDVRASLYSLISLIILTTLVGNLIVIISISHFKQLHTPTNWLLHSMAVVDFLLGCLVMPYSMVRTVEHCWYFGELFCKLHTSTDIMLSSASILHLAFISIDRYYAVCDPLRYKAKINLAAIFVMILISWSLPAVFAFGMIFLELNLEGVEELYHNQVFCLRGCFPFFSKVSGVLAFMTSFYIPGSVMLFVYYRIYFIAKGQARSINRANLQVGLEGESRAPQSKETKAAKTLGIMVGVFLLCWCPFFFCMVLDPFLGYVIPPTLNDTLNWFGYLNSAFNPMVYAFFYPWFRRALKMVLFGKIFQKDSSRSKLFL

O=C(Nc1ccc(Cl)nc1)Nc1ccc(C2CNCCO2)cc1Cl (racemic) [Example 14, (RS)-1-(2-Chloro-4-morpholin-2-yl-phenyl)-3-(6-chloro-pyridin-3-yl)-urea]
Ki (rat TAAR1): 0.0039 µM

N#Cc1cc(C2CNCCO2)ccc1NC(=O)c1ccn(-c2ccc(F)cc2)n1 (racemic) [Example 28, (RS)—N-(2-Cyano-4-(morpholin-2-yl)phenyl)-1-(4-fluorophenyl)-1H-pyrazole-3-carboxamide]
Ki (mouse TAAR1): 0.014 µM

N#Cc1cccc(NC(=O)Nc2ccc(C3CNCCO3)cc2C#N)c1 (racemic) [Example 33, (RS)-1-(2-Cyano-4-morpholin-2-yl-phenyl)-3-(3-cyano-phenyl)-urea]
Ki (rat TAAR1): 1.51 µM

O=C(Nc1ccc(Cl)nc1)Nc1ccc(C2CCNC2)cc1Cl (racemic) [Example 38, (RS)-1-(6-Chloro-pyridin-3-yl)-3-(2-chloro-4-pyrrolidin-3-yl-phenyl)-urea]
Ki (mouse TAAR1): 0.0029 µM | Ki (rat TAAR1): 0.0191 µM

O=C(Nc1ccc(Cl)nc1)Nc1ccc(C2CCCNC2)cc1Cl (racemic) [Example 41]
Ki (mouse TAAR1): 0.0015 µM | Ki (rat TAAR1): 0.009 µM

O=C(Nc1ccc(C2CCCNC2)cc1Cl)c1ccc(Cl)nc1 (racemic) [Example 43, (RS)-6-Chloro-N-(2-chloro-4-piperidin-3-yl-phenyl)-nicotinamide]
Ki (mouse TAAR1): 0.0164 µM | Ki (rat TAAR1): 0.367 µM

O=C(Nc1ccc([C@@H]2CNCCO2)cc1F)c1n[nH]c2cc(F)ccc12 [Example 1, 6-Fluoro-1H-indazole-3-carboxylic acid ((R)-2-fluoro-4-morpholin-2-yl-phenyl)-amide]
Ki (mouse TAAR1): 0.001 µM | Ki (rat TAAR1): 0.0051 µM

O=C(Nc1ccc([C@H]2CNCCO2)cc1F)c1n[nH]c2cc(F)ccc12 [Example 2, 6-Fluoro-1H-indazole-3-carboxylic acid ((S)-2-fluoro-4-morpholin-2-yl-phenyl)-amide]
Ki (mouse TAAR1): 0.0012 µM | Ki (rat TAAR1): 0.0009 µM

N#Cc1cccc(NC(=O)Nc2ccc([C@@H]3CNCCO3)cc2F)c1 [Example 3, 1-(3-Cyano-phenyl)-3-((R)-2-fluoro-4-morpholin-2-yl-phenyl)-urea]
Ki (mouse TAAR1): 0.0016 µM | Ki (rat TAAR1): 0.0015 µM

N#Cc1cccc(NC(=O)Nc2ccc([C@H]3CNCCO3)cc2F)c1 [Example 4, 1-(3-Cyano-phenyl)-3-((S)-2-fluoro-4-morpholin-2-yl-phenyl)-urea]
Ki (mouse TAAR1): 0.0017 µM | Ki (rat TAAR1): 0.0028 µM

O=C(Nc1ccc(Cl)nc1)Nc1ccc([C@@H]2CNCCO2)cc1F [Example 8, 1-(6-Chloro-pyridin-3-yl)-3-((R)-2-fluoro-4-morpholin-2-yl-phenyl)-urea]
Ki (mouse TAAR1): 0.0026 µM | Ki (rat TAAR1): 0.0039 µM

O=C(Nc1ccc(Cl)nc1)Nc1ccc([C@H]2CNCCO2)cc1F [Example 9, 1-(6-Chloro-pyridin-3-yl)-3-((S)-2-fluoro-4-morpholin-2-yl-phenyl)-urea]
Ki (mouse TAAR1): 0.0017 µM | Ki (rat TAAR1): 0.0105 µM

O=C(Nc1ccc(C(F)(F)F)nc1)Nc1ccc([C@@H]2CNCCO2)cc1F [Example 10, 1-((R)-2-Fluoro-4-morpholin-2-yl-phenyl)-3-(6-trifluoromethyl-pyridin-3-yl)-urea]
Ki (mouse TAAR1): 0.0033 µM | Ki (rat TAAR1): 0.0033 µM

O=C(Nc1ccc(C(F)(F)F)nc1)Nc1ccc([C@H]2CNCCO2)cc1F [Example 11, 1-((S)-2-Fluoro-4-morpholin-2-yl-phenyl)-3-(6-trifluoromethyl-pyridin-3-yl)-urea]
Ki (mouse TAAR1): 0.0035 µM | Ki (rat TAAR1): 0.0095 µM

O=C(Nc1ccc([C@@H]2CNCCO2)cc1F)c1ccn(-c2ccc(F)cc2)n1 [Example 12, 1-(4-Fluoro-phenyl)-1H-pyrazole-3-carboxylic acid ((R)-2-fluoro-4-morpholin-2-yl-phenyl)-amide]
Ki (mouse TAAR1): 0.0026 µM | Ki (rat TAAR1): 0.0006 µM

O=C(Nc1ccc([C@H]2CNCCO2)cc1F)c1ccn(-c2ccc(F)cc2)n1 [Example 13, 1-(4-Fluoro-phenyl)-1H-pyrazole-3-carboxylic acid ((S)-2-fluoro-4-morpholin-2-yl-phenyl)-amide]
Ki (mouse TAAR1): 0.0011 µM | Ki (rat TAAR1): 0.0024 µM

N#Cc1cccc(CNC(=O)Nc2ccc([C@@H]3CNCCO3)cc2F)c1 [Example 15, 1-(3-Cyano-benzyl)-3-((R)-2-fluoro-4-morpholin-2-yl-phenyl)-urea]
Ki (mouse TAAR1): 0.0074 µM | Ki (rat TAAR1): 0.0544 µM

Cn1nc(-c2ccccc2)cc1C(=O)Nc1ccc([C@H]2CNCCO2)cc1F [Example 17, 2-Methyl-5-phenyl-2H-pyrazole-3-carboxylic acid ((S)-2-fluoro-4-morpholin-2-yl-phenyl)-amide]
Ki (mouse TAAR1): 0.0151 µM | Ki (rat TAAR1): 0.0128 µM

O=C(Nc1ccc(Cl)nc1)Nc1ccc([C@H]2CNCCO2)cc1Cl [Example 19, (S)-1-(2-Chloro-4-morpholin-2-yl-phenyl)-3-(6-chloro-pyridin-3-yl)-urea]
Ki (rat TAAR1): 0.0034 µM

O=C(Nc1ccc(Cl)nc1)Nc1ccc([C@@H]2CNCCO2)cc1Cl [Example 20, (R)-1-(2-Chloro-4-morpholin-2-yl-phenyl)-3-(6-chloro-pyridin-3-yl)-urea]
Ki (rat TAAR1): 0.005 µM

O=C(Nc1ccc([C@@H]2CNCCO2)cc1F)c1cnn(-c2ccc(F)cc2)c1 [Example 21, (R)—N-(2-fluoro-4-(morpholin-2-yl)phenyl)-1-(4-fluorophenyl)-1H-pyrazole-4-carboxamide]
Ki (mouse TAAR1): 0.0032 µM | Ki (rat TAAR1): 0.0022 µM

O=C(Nc1ccc([C@H]2CNCCO2)cc1F)c1cnn(-c2ccc(F)cc2)c1 [Example 22, (S)—N-(2-fluoro-4-(morpholin-2-yl)phenyl)-1-(4-fluorophenyl)-1H-pyrazole-4-carboxamide]
Ki (mouse TAAR1): 0.002 µM | Ki (rat TAAR1): 0.0036 µM

Cn1nc(-c2ccccc2)cc1C(=O)Nc1ccc([C@@H]2CNCCO2)cc1F [Example 23, 2-Methyl-5-phenyl-2H-pyrazole-3-carboxylic acid ((R)-2-fluoro-4-morpholin-2-yl-phenyl)-amide]
Ki (mouse TAAR1): 0.0254 µM | Ki (rat TAAR1): 0.0033 µM

COc1cc(C(=O)Nc2ccc([C@@H]3CNCCO3)cc2F)cc(Cl)n1 [Example 24, 2-Chloro-N—((R)-2-fluoro-4-morpholin-2-yl-phenyl)-6-methoxy-isonicotinamide]
Ki (mouse TAAR1): 0.0032 µM | Ki (rat TAAR1): 0.007 µM

COc1cc(C(=O)Nc2ccc([C@H]3CNCCO3)cc2F)cc(Cl)n1 [Example 25, 2-Chloro-N—((S)-2-fluoro-4-morpholin-2-yl-phenyl)-6-methoxy-isonicotinamide]
Ki (mouse TAAR1): 0.0034 µM | Ki (rat TAAR1): 0.0127 µM

N#Cc1cc(F)cc(NC(=O)Nc2ccc([C@H]3CNCCO3)cc2F)c1 [Example 26, 1-(3-Cyano-5-fluoro-phenyl)-3-((S)-2-fluoro-4-morpholin-2-yl-phenyl)-urea]
Ki (mouse TAAR1): 0.0012 µM | Ki (rat TAAR1): 0.002 µM

N#Cc1cc(NC(=O)Nc2ccc([C@H]3CNCCO3)cc2F)ccc1F [Example 27, 1-(3-Cyano-4-fluoro-phenyl)-3-((S)-2-fluoro-4-morpholin-2-yl-phenyl)-urea]
Ki (mouse TAAR1): 0.0028 µM | Ki (rat TAAR1): 0.0038 µM
